The values that follow come from patent publication US12551434B2, “Zwitterionic polymer particle compositions and related methods” (WAYNE STATE UNIVERSITY, priority 2020, dated 2026).

Data set [1] relates to Caco-2 cells (PAT1 overexpression). Nature of the data set: Cell uptake of micelle/polystyrene nanoparticles (confocal, flow cytometry). Format: cell-based, human. On the technique in general: In flow cytometry, cells or beads pass a laser one at a time.
Data set [2] relates to healthy mice. Briefly: Long-term safety of repeated consecutive dosing. The settings on record: for serum endotoxin and pro-inflammatory cytokines (TNF-α, IFN-γ, IL-6): healthy mice, oral gavage twice daily 14 days, day 0 and 14, before and 1 h after dose. The procedure: Long-term safety of repeated consecutive dosing. […] At day 14, the lactulose/mannitol experiment was conducted to examine potential tight junction opening through the lactulose-mannitol intestinal permeability test. In addition, the ileum tissue was collected and fixed in 10% zinc fixative (BD Pharmingen™), dehydrated in ethanol, and embedded in paraffin. Five-μm cross-sections of intestine tissue were deparaffinized, rehydrated, and stained with Hematoxylin and Eosin. Histological morphology was examined using an EVOS XL Core Cell Imaging microscope. In addition, healthy mice received the same oral administered with DSPE-PCB micelle, saline, Polysorbate 80, or sodium decanoate twice daily for 14 consecutive days (the same dose as above). On day 0 and 14, before and 1 h after the oral administration, blood serum was collected and the endotoxin and pro-inflammatory cytokines (IFN-γ, IL-1β, ILL-4, IL-6, IL-12, TNF-α) were measured with Pierce LAL Chromogenic Endotoxin Quantitation Kit and the mouse magnetic Luminex® assays (Lot No: L131929).

Data set [3] concerns Caco-2 monolayers. Briefly: Transepithelial electrical resistance (TEER) study. The procedure:
Transepithelial electrical resistance (TEER) study. Caco-2 cells were suspended in EMEM supplemented with 20% FBS, and seeded at a density of 2×10^5 cells per well on Corning® Transwell polyester membrane cell culture inserts and incubated for 96 h. The TEER was monitored to confirm proper barrier formation and only monolayers with initial TEER values of at least 300Ω×cm^2 were used for TEER or molecular permeability experiments. Prior to the study, the medium in the apical and basolateral chambers was replaced with prewarmed EMEM. After equilibration at 37° C. for 30 min, the apical solution was replaced with Sodium decanoate, polysorbate 80 or DSPE-PCB (0.2% w/v) in EMEM. After incubation for 4 h, the TEER value of each insert was measured with EVOM2
Epithelial volt/ohmmeter to explore the integrity of the tight junction.

For data set [4], the system named is intestine epithelial tight junctions. Nature of the data set: TEM imaging of tight junctions after ileum injection. The conditions noted are these: 1 h post ileum injection.
Description: (§1) 1 h post ileum injection of the formulations, mice were euthanized and small parts of ileum (5×5 mm) near to the injection site were collected and washed with PBS. The samples were continuously fixed in 2.5% glutaraldehyde+2.5% paraformaldehyde in 0.1M PBS buffer and 4% osmium tetroxide solution and transferred into Beem® embed capsule with micro-embed resin added to embed samples. The obtained blocks were further sectioned with ultra-microtomy to obtain sections with thickness of ˜70 nm. These sections were retrieved via copper grid and stained with 1% lead citrate and 4% uranyl acetate separately, and then visualized under a JEM-100CX II electron microscope operated at 100 kV.
Data set [5] relates to intestinal tight junctions. Briefly: Lactulose-mannitol intestinal permeability test. It is filed as in vivo. The settings on record: healthy and diabetic mice, 1 h after ileum co-injection, vs control without micelles. Here is the method:
The lactulose-mannitol intestinal permeability test. Healthy and diabetic mice remained fasted for 8 h and were restricted from water for 3 h before the experiment. Then mice received 500 μL water through oral gavage. 1 h later, the lactulose, mannitol, and free micelles were co-administered via ileum injection at the dose of 40/8/5.2 mg/ml (50 μL) and the wound is closed with wound clips. 1 h post ileum injection, the urine was collected, and the ileum tissue surrounding the injection site was collected for TEM imaging. The concentrations of lactulose and mannitol were measured using LC-MS-MS, with a mobile phase of 10 mM ammonium formate in water and acetonitrile (90:10), and an Agilent advanced bio glucan mapping column (2.1×100 mm×2.7 μm) (precursor and product: mannitol 180.7→89; lactulose 341.2→160.8).

Data set [6] relates to intestine epithelial tight junctions. The conditions noted are these: mouse, in vivo.
Description: as §1
The format of data set [7] is in vitro ADME, porcine. Here is the method:
Tracking nanoparticle diffusion in mucus. Nanoparticle diffusion behavior in mucus was studied by modifying methods as described in Lai, S. K. et al. P Natl Acad Sci USA 104, 1482-1487 (2007) and Olmsted, S. S. et al. Biophys J 81, 1930-1937 (2001). Mucus was reconstituted by dissolving porcine stomach mucin in phosphate buffered saline (PBS) at 30 mg/ml. Nanogels were added into 100 μl mucus to reach a final concentration of 3% vol/vol (final particle concentration, 8.25×10^−7 wt/vol) and incubated for 1 h on a Nunc™ glass bottom dish (0.17 mm thickness for the inside bottom glass) before observation. Movies were captured with 64×oil-immersion objective in a spinning disc confocal microscope (Yokogawa CSU-X1M 5000 microlens, Zeiss LSM 800). For each nanogel sample, trajectories of n=50 particles were analyzed, and three samples were examined for each type of nanogel. MSD was calculated with the equation of MSD=<|r(t)-r(0)|^2> at a temporal resolution of 200 ms for 20 s.

Data set [8] deals with streptozotocin (STZ)-induced C57BL/6 diabetic mice. Briefly: Blood glucose lowering on STZ-induced diabetic mice (ileum injection or oral gavage). The conditions noted are these: ileum injection, 20 IU/Kg, compared with saline baseline. Format: in vivo. The procedure: Animals and diabetes induction. All animal experiments were performed according to the National Institute of Health (NIH) guidelines for animal research under a protocol approved by the Institutional Animal Care and Use Committee (IACUC) at Wayne State University. To establish streptozotocin (STZ)-induced diabetic mice model, healthy mice (C57BL/6J, male, 6-8 weeks of age, Jackson Lab) received a daily intraperitoneal injection of 5 mg/ml STZ at 50 mg/kg body weight for 5 consecutive days. 17 days after the first injection, body weight and blood glucose were measured to confirm the diabetic status. Diabetic mice with blood glucose above 300 mg/dL were selected for further in vivo test. To establish STZ-rat model, healthy rats (Sprague Dawley rat, male, ˜180 g, Charles River) received a one-time intraperitoneal injection of 65 mg/kg STZ. 10 days after injection, diabetic rats with blood glucose above 300 mg/dL were selected for further in vivo test.
Ileum injection surgery. Mice received buprenorphine SR subcutaneously and surgical anesthesia was managed by isoflurane inhalation. The surgical site (abdomen) was shaved and prepped with three alternating scrubs of betadine and alcohol. On prepped animal, a single incision (1.5-2 cm) was made through abdomen skin. About 0.5-1 cm ileum of intestine was pulled-out from the enterocoelia. […]

For data set [9], the system named is Caco-2 cells.
Data set [10] concerns Caco-2 cells. Nature of the data set: In vitro cytotoxicity (MTT) and live/dead assay. It is filed as cell-based, human. The conditions noted are these: 0.01-1 mg/ml, 24 h. The procedure:
In vitro cytotoxicity and live/dead assay. In vitro cytotoxicity was evaluated using MTT assay with Caco-2 cells. Caco-2 cells were seeded on 96-well plates at a density of 2×10^4 cells per well in Eagle's Minimum Essential Medium (EMEM) with 20% FBS and cultured in 5% CO2 atmosphere at 37° C. for 24 h. Then the cells were washed twice with HBSS and incubated with 100 μl of DSPE-PCB micelle or Polysorbate 80 solutions in EMEM with concentrations of 0.01, 0.1, and 1.0 mg/ml, respectively. After 24 h of incubation at 37° C., the DSPE-PCB micelle and Polysorbate 80 solution were replaced with 100 μL of MTT solution (0.5 mg/ml in HBSS), and the cells were incubated for an additional 4 h at 37° C. Subsequently, the supernatant was carefully removed and 150 μL of dimethyl sulfoxide (DMSO) was added to each well. The absorbance of the resultant solutions was measured at 570 nm using a microplate reader (Bio-Rad, USA). Untreated cells were used as negative control for 100% cell viability. Cell viability was expressed as percentage of absorbance relative to the control. Live/dead assay was conducted by staining the cells with 100 μL of PBS buffer containing 2 μM Calcein and 4 μM ethidiumhomodimer-1 (Live/Dead viability/cytotoxicity kit, Invitrogen, CA, USA). The cells were incubated at room temperature for 30 minutes and observed by the EVOS FL fluorescence microscope (AMG).

Data set [11] relates to Caco-2 cells. Nature of the data set: LDH leakage assay. The conditions noted are these: % of untreated cell negative control; 1% with sonication, complete lysis, positive control. On the technique in general: LDH in the medium is a marker of cell lysis.

Read-outs that look alike come from different tables or passages of the source.

With `N[C@@H](Cc1c[nH]c2ccccc12)C(=O)O` [L-tryptophan], in data set [1] (pretreatment 5 mg/ml, 1 h), the “inhibition of Caco-2 uptake of DSPE-PCB micelle particles by PAT1 substrates” value is on record as “significantly inhibited”.

Turning to `CCCCCCCCCC(=O)[O-].[Na+]` [sodium decanoate], in data set [2], the “serum endotoxin and pro-inflammatory cytokines (TNF-α, IFN-γ, IL-6)” value is “observable increase”. Further, the “TEER / permeability of Caco-2 cell layers” value (“TEER / permeability” for short) in data set [3] (0.2% w/v, 4 hours) is listed as “drastically decreased TEER values”. The “tight junction morphology (TEM)” value in [4] was “even more severe tight junction opening”. Moreover, the “excretion ratio of lactulose to mannitol (L/M) in urine” value in data set [5] is “drastically higher L/M ratio values”.

Consider “DSPE lipid conjugated with poly(N-methacryloyloxyethyl-N,N-dimethylammonium-α-N-methylcarboxybetaine) [DSPE-PCB micelles]”, for which, in [2] (mouse, in vivo, po), the “small intestine histology (H&E) on day 14” value is recorded as “no significant structural damage” and the “tight junction opening, urine lactulose/mannitol test at day 14” value is recorded as “no significant tight junction opening”. Besides, the “tight junction morphology (TEM)” value in data set [6] is recorded as “intact tight junctions”. The “TEER / permeability” value in [3] (Caco-2) is recorded as “did not increase the permeability of Caco-2 cell layers”. Moreover, the “MSD relative to Polysorbate 80 micelles” value in [7] is about 12 times.

With “Native insulin: native insulin not encapsulated by any carrier”, the glucose-lowering effect entry in data set [8] is on record as “hardly achieved any glucose-lowering effect”.

Turning to Polysorbate 80, in [2], the “serum endotoxin and pro-inflammatory cytokines (TNF-α, IFN-γ, IL-6)” value is recorded as “observable increase”. Further, the “lactate dehydrogenase (LDH) release” value in data set [9] is “no significant lactate dehydrogenase (LDH) release”. Also, the cellular uptake result in [1] (Caco-2 cells compared with 3T3 cells, 2 h, 37 C) was “no observable polysorbate 80 uptake”. The “cytotoxicity (cell viability, MTT, live/dead staining)” value in [10] is “no significant cytotoxicity”. Also, the “tight junction morphology (TEM)” value in data set [6] was “severe tight junction opening”. For the same compound, in data set [3] (Caco-2), the “TEER / permeability” value is reported as “drastically decreased TEER values”. Further, the “excretion ratio of lactulose to mannitol (L/M) in urine” value in data set [5] is listed as “drastically higher L/M ratio values”.

In data set [11], Triton X-100 registered an LDH leakage level of 240%.
